# Test results reported in patent US9629864B2 (priority 2013, dated 2017).
# Assays:
# [1] = tested on: mouse model of acute hemolytic uremic syndrome (type 2 Shiga toxin); set-up: species or system mice; settings: in vivo, 200 mg/kg
# [2] = tested on: mouse model of acute hemolytic uremic syndrome (type 2 Shiga toxin); set-up: species or system mice; settings: in vivo, 200 mg/kg; remark: listed apart in the source
# [3] = tested on: yeast-type fungi; settings: cited from earlier work
# [4] = tested on: mouse model of acute hemolytic uremic syndrome (type 2 Shiga toxin); set-up: species or system mice; settings: in vivo, 200 mg/kg; remark: listed apart in the source
# [5] = tested on: Hela cells; settings: 72 h
smiles,measurement,setting,value
O=C(O)[C@H]1O[C@@H](Oc2cc3oc(-c4ccccc4)cc(=O)c3c(O)c2O)[C@H](O)[C@@H](O)[C@@H]1O [baicalin],survival rates of mice,[1],significantly increased
same,pathological changes of kidney,[2],"only a minor hemorrhage existed in the kidney tissue, and there was no significant difference compared with mice in normal group"
same,minimal inhibitory concentration (MIC),[3],70 to 100 µg/mL
same,"content of blood urea nitrogen (BUN) in mouse serum, drug administration group vs normal control group",[4],no significant difference
same,"content of creatinine in mouse serum, drug administration group vs normal control group",[4],no significant difference
same,inhibition of cytotoxicity of Hela cells caused by type 2 Shiga toxin,[5],"significantly inhibited the cytotoxicity of Hela cells caused by type 2 Shiga toxin, in a dose-dependent manner"
